Assay results as given in patent publication US7511059B2, “Thiazolidinones, their production and use as pharmaceutical agents” (Schering Ag, priority 2005, dated 2009).

What was measured:
[1] = target: T1, Recombinant human Plk-1 (Homo sapiens, UniProt P53350); assay: PLK Enzyme Assay; assay type: biochemical; conditions: biotinylated casein and 33P-γ-ATP as substrate, 90 minutes at room temperature, read-out: PLK-1 IC50 [nM] Inhibition
T1 construct: 6xHis; made in house; host or cells: baculovirus-infected Hi5 insect cells
T1 sequence (P53350 whole entry): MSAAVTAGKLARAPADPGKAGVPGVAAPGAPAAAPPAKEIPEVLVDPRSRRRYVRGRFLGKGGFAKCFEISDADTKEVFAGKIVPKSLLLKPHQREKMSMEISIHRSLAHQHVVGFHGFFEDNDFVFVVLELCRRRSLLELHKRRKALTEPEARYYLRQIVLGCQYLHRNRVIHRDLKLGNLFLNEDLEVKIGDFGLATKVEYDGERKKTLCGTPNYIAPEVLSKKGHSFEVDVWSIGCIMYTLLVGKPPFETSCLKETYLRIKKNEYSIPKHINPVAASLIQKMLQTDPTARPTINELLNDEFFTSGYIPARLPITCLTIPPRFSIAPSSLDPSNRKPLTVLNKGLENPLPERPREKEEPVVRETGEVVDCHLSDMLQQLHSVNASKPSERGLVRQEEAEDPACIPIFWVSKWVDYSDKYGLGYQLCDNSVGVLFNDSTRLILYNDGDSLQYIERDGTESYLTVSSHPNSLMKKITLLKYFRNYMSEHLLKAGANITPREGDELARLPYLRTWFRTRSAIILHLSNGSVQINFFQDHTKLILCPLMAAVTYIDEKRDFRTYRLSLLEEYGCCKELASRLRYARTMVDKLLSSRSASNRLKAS
Experimental: Recombinant human Plk-1 (6× His) was purified from baculovirus-infected insect cells (Hi5).
10 ng of (produced in a recombinant manner and purified) PLK enzyme is incubated for 90 minutes at room temperature with biotinylated casein and 33P-γ-ATP as a substrate in a volume of 15 μl in 384-well Greiner small-volume microtiter plates (final concentrations in the buffer: 660 ng/ml of PLK; 0.7 lmol of casein, 0.5 gmol of ATP incl. 400 nCi/ml of 33P-γ-ATP; 10 mmol of MgCl2, 1 mmol of MnCl2; 0.01% NP40; 1 mmol of DTT, protease inhibitors; 0.1 mmol of Na2VO3 in 50 mmol of HEPES, pH 7.5). To complete the reaction, 5 μl of stop solution (500 μmol of ATP; 500 mmol of EDTA; 1% Triton X100; 100 mg/ml of streptavidin-coated SPA beads in PBS) is added. After the microtiter plate is sealed by film, the beads are sedimented by centrifuging (10 minutes, 1500 rpm). The incorporation of 33P-γ-ATP in casein is intended as a measurement of enzyme activity by β-counting.
Test substances are used in various concentrations (0 μmol, as well as in the range of 0.01-30 μmol). The final concentration of the solvent dimethyl sulfoxide is 1.5% in all batches.

[2] = tested on: human MaTu breast tumor cells; assay: Proliferation Assay; assay type: cell-based; conditions: 96 h, incubated 4 days, crystal violet, read-out: Inhibition of the Tumor Cell Proliferation (MaTu) IC50
Experimental: Cultivated human MaTu breast tumor cells were flattened out at a density of 5000 cells/measuring point in a 96-well multititer plate in 200 μl of the corresponding growth medium. After 24 hours, the cells of one plate (zero-point plate) were colored with crystal violet (see below), while the medium of the other plates was replaced by fresh culture medium (200 μl), to which the test substances were added at various concentrations (0 μm, as well as in the range of 0.01-30 μm; the final concentration of the solvent dimethyl sulfoxide was 0.5%). The cells were incubated for 4 days in the presence of test substances. The cell proliferation was determined by coloring the cells with crystal violet: the cells were fixed by adding 20 μl/measuring point of an 11% glutaric aldehyde solution for 15 minutes at room temperature. After three washing cycles of the fixed cells with water, the plates were dried at room temperature. The cells were colored by adding 100 μl/measuring point of a 0. 1% crystal violet solution (pH was set at 3 by adding acetic acid). After three washing cycles of the colored cells with water, the plates were dried at room temperature. The dye was dissolved by adding 100 μl/measuring point of a 10% acetic acid solution. The extinction was determined by photometry at a wavelength of 595 nm. The change of cell growth, in percent, was calculated by standardization of the measured values to the extinction values of the zero-point plate (=0%) and the extinction of the untreated (0 μm) cells (=100%).

Row | IC50 [1] [nM] | IC50 [2] [nM] | Structure (SMILES)
1 | 140 | 3200 | CCn1c(=C(C#N)C2=N[C@@H](C)CO2)sc(=CNc2cccc(NC(=O)C(C)(C)C)c2)c1=O [Example 20, N-(3-{[2-[1-Cyano-1-((S)-4-methyl-4,5-dihydro-oxazol-2-yl)-meth-(E or Z)-ylidene]-3-ethyl-4-oxo-thiazolidin-(5-(E/Z))-ylidenemethyl]-amino-phenyl)-2,2-dimethyl-propionamide]
2 | 69 | 3600 | CCn1c(=C(C#N)C2=NC(C)(C)CO2)sc(=CNc2cccc(NC(=O)COCCOC)n2)c1=O (mixture of isomers) [Example 37, N-(6-{[2-[1-Cyano-1-(4,4-dimethyl-4,5-dihydro-oxazol-2-yl)-meth-(E or Z)-ylidene]-3-ethyl-4-oxo-thiazolidin-(5-(E/Z))-ylidenemethyl]-amino}-pyridin-2-yl)-2-(2-methoxy-ethoxy)-acetamide]
3 | 53 | 1200 | CCn1c(=C(C#N)C2=N[C@H]3CCC[C@H]3O2)sc(=CNc2cccc(NC(=O)C(C)(C)O)c2)c1=O (mixture of isomers) [Example 31, N-(3-{[2-[(3aS,6aR)-1-Cyano-1-4,5,6,6a-tetrahydro-3aH-cyclopentaoxazol-2-yl-meth-(E or Z)-ylidene]-3-ethyl-4-oxo-thiazolidin-(5-(E/Z))-ylidenemethyl]-amino}-phenyl)-2-hydroxy-2-methyl-propionamide]
4 | 55 | 2100 | CCn1c(=C(C#N)C2=NCC(C)O2)sc(=CNc2cccc(NC(=O)C(C)(C)C)c2)c1=O (mixture of isomers) [Example 15, N-(3-{[2-[1-Cyano-1-(5-methyl-4,5-dihydro-oxazol-2-yl)-meth-(E or Z)-ylidene]-3-ethyl-4-oxo-thiazolidin-(5-(E/Z))-ylidenemethyl]-amino}-phenyl)-2,2-dimethyl-propionamide]
5 | 24 | 1200 | CCNc1cc(NC=c2sc(=C(C#N)C3=N[C@H]4CCC[C@H]4O3)n(CC)c2=O)ccn1 (mixture of isomers) [Example 38, [3-Ethyl-5-[1-(2-ethylamino-pyridin-4-ylamino)-meth-(E/Z)-ylidene]-4-oxo-thiazolidin-(2-(E or Z))-ylidene]-(3aS,6aR)-4,5,6,6a-tetrahydro-3aH-cyclopentaoxazol-2-yl-acetonitrile]
